Data published in ChEMBL document CHEMBL4118098, “Discovery of DS28120313 as a potent orally active hepcidin production inhibitor: Design and optimization of novel 4,6-disubstituted indazole derivatives” (Bioorg Med Chem Lett, 2017).

Legend:
[1] = target: BDNF/NT-3 growth factors receptor (Homo sapiens) (UniProt Q16620); test: Inhibition of NTRK2 (unknown origin) at 0.19 uM relative to control
[2] = target: Serine/threonine-protein kinase Chk2 (Homo sapiens) (UniProt O96017); test: Inhibition of CHK2 (unknown origin) at 0.164 uM relative to control
Chain of Serine/threonine-protein kinase Chk2 (Homo sapiens) (O96017 whole entry): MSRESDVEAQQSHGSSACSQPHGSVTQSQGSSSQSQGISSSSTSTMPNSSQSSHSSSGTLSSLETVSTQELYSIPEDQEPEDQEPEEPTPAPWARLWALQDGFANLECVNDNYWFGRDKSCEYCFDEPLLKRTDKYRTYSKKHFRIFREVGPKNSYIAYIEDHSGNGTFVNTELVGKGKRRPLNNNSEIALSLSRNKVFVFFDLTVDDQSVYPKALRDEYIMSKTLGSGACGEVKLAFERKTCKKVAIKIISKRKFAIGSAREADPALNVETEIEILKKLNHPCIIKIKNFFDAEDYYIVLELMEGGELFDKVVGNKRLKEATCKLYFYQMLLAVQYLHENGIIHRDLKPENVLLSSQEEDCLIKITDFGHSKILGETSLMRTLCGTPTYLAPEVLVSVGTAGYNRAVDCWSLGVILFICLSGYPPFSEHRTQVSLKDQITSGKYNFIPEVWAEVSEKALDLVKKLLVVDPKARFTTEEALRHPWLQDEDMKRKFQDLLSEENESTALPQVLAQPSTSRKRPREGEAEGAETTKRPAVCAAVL

[3] = target: Dual specificity protein kinase CLK3 (Homo sapiens) (UniProt P49761); test: Inhibition of CLK3 (unknown origin) at 0.164 uM relative to control
Chain of Dual specificity protein kinase CLK3 (Homo sapiens) (P49761 whole entry, looked up): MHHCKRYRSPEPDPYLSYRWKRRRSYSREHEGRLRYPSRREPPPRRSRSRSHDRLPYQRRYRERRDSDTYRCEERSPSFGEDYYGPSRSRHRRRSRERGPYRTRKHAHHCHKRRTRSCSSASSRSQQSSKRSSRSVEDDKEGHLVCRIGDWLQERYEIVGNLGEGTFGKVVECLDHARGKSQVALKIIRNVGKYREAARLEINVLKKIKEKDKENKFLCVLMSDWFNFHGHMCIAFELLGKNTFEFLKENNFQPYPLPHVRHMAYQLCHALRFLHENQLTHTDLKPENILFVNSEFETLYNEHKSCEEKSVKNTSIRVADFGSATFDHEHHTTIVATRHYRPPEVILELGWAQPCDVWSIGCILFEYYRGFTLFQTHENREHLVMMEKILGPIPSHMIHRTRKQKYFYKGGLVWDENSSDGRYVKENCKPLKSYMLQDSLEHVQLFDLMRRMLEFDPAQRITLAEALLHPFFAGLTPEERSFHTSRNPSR

Chain of BDNF/NT-3 growth factors receptor (Homo sapiens) (Q16620 32-822 limits assumed): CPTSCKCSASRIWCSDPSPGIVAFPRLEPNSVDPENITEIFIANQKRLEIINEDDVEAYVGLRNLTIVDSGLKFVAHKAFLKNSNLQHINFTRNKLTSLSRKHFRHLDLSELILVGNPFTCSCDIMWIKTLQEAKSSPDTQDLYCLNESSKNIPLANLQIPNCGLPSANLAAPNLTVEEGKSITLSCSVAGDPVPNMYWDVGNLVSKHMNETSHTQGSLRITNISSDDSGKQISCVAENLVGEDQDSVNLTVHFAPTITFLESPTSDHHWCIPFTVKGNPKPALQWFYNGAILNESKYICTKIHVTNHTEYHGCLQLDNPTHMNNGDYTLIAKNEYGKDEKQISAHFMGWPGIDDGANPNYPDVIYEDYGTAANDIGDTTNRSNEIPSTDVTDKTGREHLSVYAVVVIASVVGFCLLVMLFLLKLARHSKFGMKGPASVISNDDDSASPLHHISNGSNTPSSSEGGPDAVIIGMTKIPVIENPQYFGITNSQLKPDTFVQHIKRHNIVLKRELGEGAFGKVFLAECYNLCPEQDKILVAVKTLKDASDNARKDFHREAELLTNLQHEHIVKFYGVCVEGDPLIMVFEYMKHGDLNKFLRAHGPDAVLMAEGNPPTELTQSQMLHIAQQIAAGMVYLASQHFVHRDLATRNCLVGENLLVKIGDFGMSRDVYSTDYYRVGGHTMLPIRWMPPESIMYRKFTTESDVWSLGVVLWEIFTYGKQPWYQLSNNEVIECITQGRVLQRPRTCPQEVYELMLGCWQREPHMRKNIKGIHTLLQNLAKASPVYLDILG

| inhibition [1] [%] | inhibition [2] [%] | inhibition [3] [%] | SMILES |
| --- | --- | --- | --- |
| 18.3 | – | – | Cc1[nH]nc(C2CC2)c1-c1ccc2c(-c3ccc(N4CCN(C)CC4)nc3)n[nH]c2c1 |
| – | 9.7 | 3.7 | COC(=O)Nc1cc(-c2c(C3CC3)n[nH]c2C)cc2[nH]ncc12 |
